# Test results reported in PMC6366416, “Synthesis and in vitro anticancer activity of certain novel 1-(2-methyl-6-arylpyridin-3-yl)-3-phenylureas as apoptosis-inducing agents” (Journal of Enzyme Inhibition and Medicinal Chemistry, 2019).
# How the values were obtained:
# 786-0 = assay: NCI one-dose SRB growth inhibition; type: cell-based; settings: Homo sapiens, Renal Cancer, 48 h, read-out: GI% 786-0
# Procedure: (§1) The antitumor assay was performed according to the protocol of the Drug Evaluation Branch, NCI, Bethesda[24–26]. A 48 h drug exposure protocol was adopted, and sulforhodamine B (SRB) assay[27] was utilized to assess the cell growth and viability, as reported earlier[17]^,[28].
# (§2) The structures of all the newly synthesized pyridines 5a–l were submitted to the National Cancer Institute (NCI) Developmental Therapeutic Program (www.dtp.nci.nih.gov). […] Nine different types of cancer were tested in this assay: colon, ovarian, prostate, leukemia, melanoma, CNS, renal, breast and lung cancers. A 48 h drug exposure protocol was adopted, and sulforhodamine B (SRB) assay[27] was utilized to assess the cell growth and viability.
# EKVX = assay: NCI one-dose SRB growth inhibition; type: cell-based; settings: Homo sapiens, Non-Small Cell Lung Cancer, 48 h, read-out: GI% EKVX
# Procedure: as §1, §2
# HCC-2998 = assay: NCI one-dose SRB growth inhibition; type: cell-based; settings: Homo sapiens, Colon Cancer, 48 h, read-out: GI% HCC-2998
# Procedure: as §1, §2
# HCT-116 = assay: NCI one-dose SRB growth inhibition; type: cell-based; settings: Homo sapiens, HCT-116, 48 h, Colon Cancer, read-out: GI% HCT-116
# Procedure: as §1, §2
# HCT-15 = assay: NCI one-dose SRB growth inhibition; type: cell-based; settings: Homo sapiens, HCT-15, 48 h, Colon Cancer, read-out: GI% HCT-15
# Procedure: as §1, §2
# HL-60(TB) = assay: NCI one-dose SRB growth inhibition; type: cell-based; settings: Homo sapiens, Leukemia, 48 h, read-out: GI% HL-60(TB)
# Procedure: as §1, §2
# HOP-62 = assay: NCI one-dose SRB growth inhibition; type: cell-based; settings: Homo sapiens, Non-Small Cell Lung Cancer, 48 h, read-out: GI% HOP-62
# Procedure: as §1, §2
# HS 578T = assay: NCI one-dose SRB growth inhibition; type: cell-based; settings: Homo sapiens, Breast Cancer, 48 h, read-out: GI% HS 578T
# Procedure: as §1, §2
# HT29 = assay: NCI one-dose SRB growth inhibition; type: cell-based; settings: Homo sapiens, HT-29, 48 h, Colon Cancer, read-out: GI% HT29
# Procedure: as §1, §2
# K-562 = assay: NCI one-dose SRB growth inhibition; type: cell-based; settings: Homo sapiens, K562, 48 h, Leukemia, read-out: GI% K-562
# Procedure: as §1, §2
# MALME-3M = assay: NCI one-dose SRB growth inhibition; type: cell-based; settings: Homo sapiens, Melanoma, 48 h, read-out: GI% MALME-3M
# Procedure: as §1, §2
# MCF7 = assay: NCI one-dose SRB growth inhibition; type: cell-based; settings: Homo sapiens, Breast Cancer, 48 h, read-out: GI% MCF7
# Procedure: as §1, §2
# MDA-MB-231 = assay: NCI one-dose SRB growth inhibition; type: cell-based; settings: Homo sapiens, Breast Cancer, 48 h, read-out: GI% MDA-MB-231
# Procedure: as §1, §2
# MDA-MB-468 = assay: NCI one-dose SRB growth inhibition; type: cell-based; settings: Homo sapiens, Breast Cancer, 48 h, read-out: GI% MDA-MB-468
# Procedure: as §1, §2
# NCI-H322M = assay: NCI one-dose SRB growth inhibition; type: cell-based; settings: Homo sapiens, Non-Small Cell Lung Cancer, 48 h, read-out: GI% NCI-H322M
# Procedure: as §1, §2
# OVCAR-3 = assay: NCI one-dose SRB growth inhibition; type: cell-based; settings: Homo sapiens, OVCAR-3, 48 h, Ovarian Cancer, read-out: GI% OVCAR-3
# Procedure: as §1, §2
# OVCAR-4 = assay: NCI one-dose SRB growth inhibition; type: cell-based; settings: Homo sapiens, Ovarian Cancer, 48 h, read-out: GI% OVCAR-4
# Procedure: as §1, §2
# SF-268 = assay: NCI one-dose SRB growth inhibition; type: cell-based; settings: Homo sapiens, CNS Cancer, 48 h, read-out: GI% SF-268
# Procedure: as §1, §2
# SF-295 = assay: NCI one-dose SRB growth inhibition; type: cell-based; settings: Homo sapiens, CNS Cancer, 48 h, read-out: GI% SF-295
# Procedure: as §1, §2
# SK-MEL-28 = assay: NCI one-dose SRB growth inhibition; type: cell-based; settings: Homo sapiens, Melanoma, 48 h, read-out: GI% SK-MEL-28
# Procedure: as §1, §2
# SNB-19 = assay: NCI one-dose SRB growth inhibition; type: cell-based; settings: Homo sapiens, CNS Cancer, 48 h, read-out: GI% SNB-19
# Procedure: as §1, §2
# TK-10 = assay: NCI one-dose SRB growth inhibition; type: cell-based; settings: Homo sapiens, Renal Cancer, 48 h, read-out: GI% TK-10
# Procedure: as §1, §2
# U251 = assay: NCI one-dose SRB growth inhibition; type: cell-based; settings: Homo sapiens, U-251, CNS Cancer, 48 h, read-out: GI% U251
# Procedure: as §1, §2
# A549 cell line = assay: MTT anti-proliferative assay; type: cell-based; settings: Homo sapiens, 48 h of incubation, mean ± SD of three experiments
# Summary of the method: (§3)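 A549 and HCT-116 cells grown in DMEM with 10% FBS and 10 μg/mL insulin were treated with compounds; viability read by MTT colorimetric assay, doxorubicin as reference. IC50 from Boltzmann sigmoidal concentration–response fit, three wells per condition, experiments in triplicate.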
# HCT-116 cell line = assay: MTT anti-proliferative assay; type: cell-based; settings: Homo sapiens, 48 h of incubation, mean ± SD of three experiments
# Summary of the method: as §3
# WI-38 cell line = assay: MTT cytotoxicity towards non-tumorigenic cells; type: cell-based, human
# Procedure: The cytotoxic activity of all synthesized pyridines 5a–l were assessed against non-tumorigenic human lung fibroblast WI-38 cell line to investigate their safety, using the MTT colorimetric assay.
compound,measurement,setting,value
"Cc1nc(-c2ccc(F)cc2)ccc1NC(=O)Nc1cccc(C(F)(F)F)c1 [Compound 5a, 1-(6-(4-Fluorophenyl)-2-methylpyridin-3-yl)-3-(3-(trifluoromethyl)phenyl)urea]",inhibition at 10 µM,786-0,< 10%
same,inhibition at 10 µM,EKVX,17%
same,inhibition at 10 µM,HCC-2998,< 10%
same,inhibition at 10 µM,HCT-116,> 40%
same,inhibition at 10 µM,HCT-15,> 40%
same,inhibition at 10 µM,HL-60(TB),11%
same,inhibition at 10 µM,HOP-62,31%
same,inhibition at 10 µM,HS 578T,< 10%
same,inhibition at 10 µM,HT29,> 40%
same,inhibition at 10 µM,K-562,> 40%
same,inhibition at 10 µM,MALME-3M,< 10%
same,inhibition at 10 µM,MCF7,30%
same,inhibition at 10 µM,MDA-MB-231,28%
same,inhibition at 10 µM,MDA-MB-468,32%
same,inhibition at 10 µM,NCI-H322M,15%
same,inhibition at 10 µM,OVCAR-3,> 40%
same,inhibition at 10 µM,OVCAR-4,30%
same,inhibition at 10 µM,SF-268,< 10%
same,inhibition at 10 µM,SF-295,17%
same,inhibition at 10 µM,SK-MEL-28,20%
same,inhibition at 10 µM,SNB-19,15%
same,inhibition at 10 µM,TK-10,< 10%
same,inhibition at 10 µM,U251,31%
same,IC50,A549 cell line,6.83 ± 0.42 µM
same,IC50,HCT-116 cell line,5.49 ± 0.3 µM
same,IC50,"WI-38 cell line; WI-38, MTT, non-tumorigenic human lung fibroblast, mean ± SD of three experiments",93.5 ± 5.28 µM
same,S. I. WI-38/A549,"WI-38 cell line; selectivity index, IC50 WI-38 / IC50 A549",13.7
